What was measured:
FL83B cells [1] = assay: Transfection of pSV-β-gal plasmid, β-galactosidase reporter activity; type: cell-based, rat
Method: (§1) Cationic lipids and the co-lipids in chloroform were dried under a stream of N2 gas and vacuum-desiccated for a minimum of 6 h to remove residual organic solvent. The dried lipid film was hydrated in sterile deionized water at cationic lipid concentration of 1 mM for a minimum of 12 h. Liposomes were vortexed to remove any adhering lipid film and probe sonicated until a clear translucent solution is formed. The pDNA solution was added to the liposomes, mixed properly by pipeting and shaken on a rotary shaker (15-30 mins.) before use.
(§2) Cells were seeded at a density of 20,000 (for HeLa cells), 16,000 (for A-549 cells), 8,000 (for FL83B cells) per well in a 96-well plate 18-24 h before transfection. An amount of 0.30 μg of pDNA was complexed with varying amounts of lipids (to give +/− ratios of 0.3:1, 1:1, 3:1 and 9:1) in plain OPTIMEM (total volume made up to 100 μl) and then shaken on a rotary shaker at room temperature for 20-30 minutes. The complexes were then added to the cells. After 5 h of incubation, 200 μl of complete medium containing 10% FBS in DMEM for HeLa and 10% FBS in F-12K for FL83B and A549 was added to the cells. The medium was changed after 24 h and the reporter gene activity was estimated 48 h after transfection. Cells were washed with PBS (100 μl) and lysed in […] lysis buffer (5× reporter lysis buffer diluted to 1×, working concentration). The β-galactosidase activity per well was estimated by adding 50 μl of 2× substrate solution (1.33 mg/ml of ONPG, 0.2 M sodium phosphate, pH 7.15 and 2 mM magnesium chloride) to the lysate in a 96-well plate. Absorbance of the product ortho-nitrophenol was measured at 420 nm. The absorbance values reported are the average values from two replicate experiments performed in the same plate on the same day. Each transfection experiment was performed three times on three different days to control for variations in transfection efficiency.
(§3) Briefly, the efficacy of various lipid formulations were tested in three cell lines A-549, FL83B and HeLa cells and the transfection efficiencies of the cationic liposomal formulations were compared with a commercially available transfection reagent (e.g., Lipofectamine 2000).

HeLa cells [2] = assay: as above; type: cell-based, human
Method: as §1, §2, §3

A549 cells = assay: as above; type: cell-based, human
Method: as §1, §2, §3

FL83B cells [3] = assay: Cell Titer 96 AQueous One Solution (MTS) cytotoxicity assay; type: cell-based, rat; settings: liposomal formulation alone or in combination with DOPE and DOPC as co-lipid
Method: (§4) Alternatively, the cytotoxicity of the lipids was measured using the Cell Titer 96® AQueous One Solution Cell Proliferation Assay. The Cell Titer 96® AQueous One Solution Reagent contains a tetrazolium compound [3-(4,5-dimethylthiazol-2-yl)-5-(3-carboxymethoxyphenyl)-2(4-sulfophenyl)-2H-tetrazolium, inner salt; MTS^17] and an electron coupling reagent (phenazine ethosulfate; PES). The cytotoxicity assay was performed in 96 well plates by maintaining the ratio of number of cells to amount of cationic lipid constant as in transfection experiments. MTS was added 24 hours after transfection. Cell Titer 96® AQueous One Solution Reagent (20 ul) was pipetted into each well of the 96-well assay plate containing the samples in 100 μl of culture medium. In case of HeLa cells the plates were incubated for 2 hours, whereas for FL83B cells, plates were incubated for 4 hours at 37° C. in a humidified, 5% CO2 atmosphere. Absorbance was then recorded at 490 nm.
(§5) In a second experiment, FL83B and HeLa cells were plated on 96 well plate 18 hours prior to transfection. Then, liposome was added to each well and incubated for 24 hours. Thereafter, Cell Titer 96® AQueous One Solution Reagent was added and incubated for 4 hours. The MTS tetrazolium compound (Owen's reagent) is bioreduced by viable cells into a colored formazan product that is soluble in tissue culture […]. The absorbance of the formazan was measured at 490 nm with a 96 well plate reader.

HeLa cells [4] = assay: as above; type: cell-based, human; settings: liposomal formulation alone or in combination with DOPE and DOPC as co-lipid
Method: as §4, §5

[5] = system: A-549, FL83B and HeLa cells; assay: Transfection of pSV-β-gal plasmid, overall statement without cell line; type: cell-based; settings: alone without any co-lipids
Method: as §2, with “efficiency. […]” for “efficiency.”

[6] = alone, lipid:DNA charge ratios 1:1 and 0.3:1
[7] = in combination with DOPE, charge ratio 3:1

## CCCCCCCCC=CCCCCCCCC(=O)OC(COC(=O)CCC(=O)OC1CCC2(C)C(=CCC3C2CCC2(C)C(C(C)CCCC(C)C)CCC32)C1)C[N+](C)(C)C.[I-] (stereo not drawn) [Lipid 8, N,N,N-Trimethyl-N-[2-(9(Z)-octadecanoyloxy),3-succinyloxy(4-cholesteryloxy)-propyl]ammonium iodide]
FL83B cells [1]; [6]
  transfection efficiency compared with Lipofectamine 2000: one fold less
FL83B cells [1]; in combination with DOPC, charge ratio 9.0:1.0 to 0.3:1.0
  transfection efficiency compared with Lipofectamine 2000: about two fold less
FL83B cells [1]; [7]
  transfection efficiency, fold less than Lipofectamine 2000: more than 1.5 fold
HeLa cells [2]; [6]
  transfection efficiency, fold less than Lipofectamine 2000: ~1.5 fold
HeLa cells [2]; in combination with DOPC, charge ratio of 1.1
  transfection efficiency compared with Lipofectamine 2000: comparable
HeLa cells [2]; [7]
  transfection efficiency, fold less than Lipofectamine 2000: more than 1.5 fold
A549 cells; [6]
  transfection efficiency compared with Lipofectamine 2000: one fold less
A549 cells; in combination with DOPC
  transfection efficiency, fold less than Lipofectamine 2000: about 1 fold
A549 cells; [7]
  transfection efficiency compared with Lipofectamine 2000: comparable
FL83B cells [3]
  cytotoxicity as compared to a control: non-toxic
HeLa cells [4]
  cytotoxicity as compared to a control: non-toxic
[5]
  transfection efficiency of lipid alone compared with lipid in combination with DOPE and DOPC: about as efficient

From patent publication US8329681B2, “Methods and compositions for the efficient delivery of therapeutic agents to cells and animals” (University of Massachusetts, priority 2005, dated 2012)
